Laboratory results from the NIST ThermoML archive (doi:10.1021/je200682t).
± gives the expanded uncertainty stated by the source.

Test: relative permittivity at zero frequency (dimensionless)
Conditions: 283.15 K; 101.33 kPa; Liquid; Parallel plate capacitor

relative permittivity at zero frequency	Compound
16.73 ± 0.02	O=C1CCCCC1 [cyclohexanone]

Same assay, conditions: 285.65 K; 101.33 kPa; Liquid; Parallel plate capacitor

relative permittivity at zero frequency	Compound
15.58 ± 0.02	O=C1CCC1 [cyclobutanone]
13.46 ± 0.02	O=C1CCCCCC1 [cycloheptanone]
13.96 ± 0.04	O=C1CCCC1 [cyclopentanone]
16.56 ± 0.02	O=C1CCCCC1 [cyclohexanone]

Same assay, conditions: 288.15 K; 101.33 kPa; Liquid; Parallel plate capacitor

relative permittivity at zero frequency	Compound
15.46 ± 0.02	O=C1CCC1 [cyclobutanone]
13.35 ± 0.02	O=C1CCCCCC1 [cycloheptanone]
13.86 ± 0.04	O=C1CCCC1 [cyclopentanone]
16.4 ± 0.02	O=C1CCCCC1 [cyclohexanone]

Same assay, conditions: 290.65 K; 101.33 kPa; Liquid; Parallel plate capacitor

relative permittivity at zero frequency	Compound
15.33 ± 0.02	O=C1CCC1 [cyclobutanone]
13.25 ± 0.02	O=C1CCCCCC1 [cycloheptanone]
13.77 ± 0.04	O=C1CCCC1 [cyclopentanone]
16.24 ± 0.02	O=C1CCCCC1 [cyclohexanone]

Same assay, conditions: 293.15 K; 101.33 kPa; Liquid; Parallel plate capacitor

relative permittivity at zero frequency	Compound
15.2 ± 0.02	O=C1CCC1 [cyclobutanone]
13.14 ± 0.02	O=C1CCCCCC1 [cycloheptanone]
13.67 ± 0.04	O=C1CCCC1 [cyclopentanone]
16.08 ± 0.02	O=C1CCCCC1 [cyclohexanone]

Same assay, conditions: 295.65 K; 101.33 kPa; Liquid; Parallel plate capacitor

relative permittivity at zero frequency	Compound
15.08 ± 0.02	O=C1CCC1 [cyclobutanone]
13.03 ± 0.02	O=C1CCCCCC1 [cycloheptanone]
13.58 ± 0.04	O=C1CCCC1 [cyclopentanone]
15.92 ± 0.02	O=C1CCCCC1 [cyclohexanone]

Same assay, conditions: 298.15 K; 101.33 kPa; Liquid; Parallel plate capacitor

relative permittivity at zero frequency	Compound
14.54 ± 0.04	O=C1CCCCCCC1 [cyclooctanone]
14.96 ± 0.02	O=C1CCC1 [cyclobutanone]
12.92 ± 0.02	O=C1CCCCCC1 [cycloheptanone]
13.49 ± 0.04	O=C1CCCC1 [cyclopentanone]
15.77 ± 0.02	O=C1CCCCC1 [cyclohexanone]

Same assay, conditions: 300.65 K; 101.33 kPa; Liquid; Parallel plate capacitor

relative permittivity at zero frequency	Compound
14.84 ± 0.02	O=C1CCC1 [cyclobutanone]
12.82 ± 0.02	O=C1CCCCCC1 [cycloheptanone]
13.39 ± 0.04	O=C1CCCC1 [cyclopentanone]
15.62 ± 0.02	O=C1CCCCC1 [cyclohexanone]

Same assay, conditions: 303.15 K; 101.33 kPa; Liquid; Parallel plate capacitor

relative permittivity at zero frequency	Compound
14.22 ± 0.04	O=C1CCCCCCC1 [cyclooctanone]
14.72 ± 0.02	O=C1CCC1 [cyclobutanone]
12.72 ± 0.02	O=C1CCCCCC1 [cycloheptanone]
13.3 ± 0.04	O=C1CCCC1 [cyclopentanone]
15.46 ± 0.02	O=C1CCCCC1 [cyclohexanone]

Same assay, conditions: 305.65 K; 101.33 kPa; Liquid; Parallel plate capacitor

relative permittivity at zero frequency	Compound
14.05 ± 0.04	O=C1CCCCCCC1 [cyclooctanone]
14.6 ± 0.02	O=C1CCC1 [cyclobutanone]
12.62 ± 0.02	O=C1CCCCCC1 [cycloheptanone]
13.22 ± 0.04	O=C1CCCC1 [cyclopentanone]
15.32 ± 0.02	O=C1CCCCC1 [cyclohexanone]

Same assay, conditions: 308.15 K; 101.33 kPa; Liquid; Parallel plate capacitor

relative permittivity at zero frequency	Compound
13.89 ± 0.04	O=C1CCCCCCC1 [cyclooctanone]
14.48 ± 0.02	O=C1CCC1 [cyclobutanone]
12.51 ± 0.02	O=C1CCCCCC1 [cycloheptanone]
13.13 ± 0.04	O=C1CCCC1 [cyclopentanone]
15.17 ± 0.02	O=C1CCCCC1 [cyclohexanone]

Same assay, conditions: 310.65 K; 101.33 kPa; Liquid; Parallel plate capacitor

relative permittivity at zero frequency	Compound
13.74 ± 0.04	O=C1CCCCCCC1 [cyclooctanone]
14.37 ± 0.02	O=C1CCC1 [cyclobutanone]
12.41 ± 0.02	O=C1CCCCCC1 [cycloheptanone]
13.04 ± 0.04	O=C1CCCC1 [cyclopentanone]
15.03 ± 0.02	O=C1CCCCC1 [cyclohexanone]

Same assay, conditions: 313.15 K; 101.33 kPa; Liquid; Parallel plate capacitor

relative permittivity at zero frequency	Compound
13.57 ± 0.04	O=C1CCCCCCC1 [cyclooctanone]
14.25 ± 0.02	O=C1CCC1 [cyclobutanone]
12.32 ± 0.02	O=C1CCCCCC1 [cycloheptanone]
12.95 ± 0.04	O=C1CCCC1 [cyclopentanone]
14.89 ± 0.02	O=C1CCCCC1 [cyclohexanone]

Same assay, conditions: 315.65 K; 101.33 kPa; Liquid; Parallel plate capacitor

relative permittivity at zero frequency	Compound
13.42 ± 0.04	O=C1CCCCCCC1 [cyclooctanone]

Same assay, conditions: 318.15 K; 101.33 kPa; Liquid; Parallel plate capacitor

relative permittivity at zero frequency	Compound
13.27 ± 0.04	O=C1CCCCCCC1 [cyclooctanone]

Same assay, conditions: 320.65 K; 101.33 kPa; Liquid; Parallel plate capacitor

relative permittivity at zero frequency	Compound
13.14 ± 0.04	O=C1CCCCCCC1 [cyclooctanone]

Same assay, conditions: 323.15 K; 101.33 kPa; Liquid; Parallel plate capacitor

relative permittivity at zero frequency	Compound
12.99 ± 0.04	O=C1CCCCCCC1 [cyclooctanone]

Same assay, conditions: 325.65 K; 101.33 kPa; Liquid; Parallel plate capacitor

relative permittivity at zero frequency	Compound
12.85 ± 0.04	O=C1CCCCCCC1 [cyclooctanone]

Same assay, conditions: 328.15 K; 101.33 kPa; Liquid; Parallel plate capacitor

relative permittivity at zero frequency	Compound
12.71 ± 0.04	O=C1CCCCCCC1 [cyclooctanone]

Same assay, conditions: 330.65 K; 101.33 kPa; Liquid; Parallel plate capacitor

relative permittivity at zero frequency	Compound
12.58 ± 0.04	O=C1CCCCCCC1 [cyclooctanone]

Same assay, conditions: 333.15 K; 101.33 kPa; Liquid; Parallel plate capacitor

relative permittivity at zero frequency	Compound
12.44 ± 0.04	O=C1CCCCCCC1 [cyclooctanone]

Same assay, conditions: 335.65 K; 101.33 kPa; Liquid; Parallel plate capacitor

relative permittivity at zero frequency	Compound
12.3 ± 0.04	O=C1CCCCCCC1 [cyclooctanone]

Same assay, conditions: 338.15 K; 101.33 kPa; Liquid; Parallel plate capacitor

relative permittivity at zero frequency	Compound
12.17 ± 0.04	O=C1CCCCCCC1 [cyclooctanone]

Same assay, conditions: 340.65 K; 101.33 kPa; Liquid; Parallel plate capacitor

relative permittivity at zero frequency	Compound
12.04 ± 0.04	O=C1CCCCCCC1 [cyclooctanone]

Same assay, conditions: 343.15 K; 101.33 kPa; Liquid; Parallel plate capacitor

relative permittivity at zero frequency	Compound
11.9 ± 0.04	O=C1CCCCCCC1 [cyclooctanone]
